Earlier results in patent US20030021750A1, “Novel functional agents for magnetic resonance imaging” (priority 2001, published 2003).

Conditions: thermodynamic stability of the Gd3+ chelate; background statement

stability constant (K) / formation constant, logK | Structure (SMILES)
22.4 | O=C([O-])CN(CCN(CC(=O)[O-])CC(=O)[O-])CCN(CC(=O)[O-])CC(=O)[O-].[Gd+3] [Gd(DTPA)^2−]
28.5 | O=C([O-])CN1CCN(CC(=O)[O-])CCN(CC(=O)[O-])CCN(CC(=O)[O-])CC1.[Gd+3] [Gd-DOTA]
